Entries after “also recorded” stand apart in the source; their conditions may differ.
Columns and labels:
KEGG pathways = experiment: KEGG pathway mapping of differentially-expressed genes; format: in vivo, C. elegans
Description: To determine which among recognized aging-related pathways were most likely modulated by treatment with the SND303 compound, and to estimate their relative contributions, two approaches were undertaken. In one approach, the genes differentially expressed after treatment were mapped to pathways in the KEGG database, a curated knowledgebase of biological pathways. This placed the transcriptomic data within the context of well-characterized biological pathways, particularly several related to longevity.
Several of these genes matched to the canonical longevity pathways as curated in KEGG (FIG. 5). […] At Day 10, however, many more pathways were represented among differentially-expressed genes and each individual pathway was more richly populated with differentially-expressed genes. The most prominent increase was in the expression of genes involved in Oxidative Phosphorylation, possibly indicating maintenance of mitochondrial function. In addition, several components of the canonical Longevity Regulating Pathway are represented. With closer examination of these the differential expression of the gene encoding Target of Rapamycin (TOR) is notable. When the TOR pathways itself was expanded, several more differentially-expressed genes were represented that were not explicitly indicated in the Longevity Regulating Pathway. Applying this process with the other pathways and modules linked to the Longevity Regulating Pathway, a coherent hypothetical pathway of action emerges.

aging-related pathways = experiment: Pathway transcriptional profile score analysis; format: in vivo, C. elegans
Description: In the second approach, the transcriptomic profile of worms treated with SND303 compound was compared with published transcriptomes in which specific aging-related pathways have been manipulated. In contrast with the first approach, this blindly scores how the data fits with published transcriptomic signatures of aging.
Frequently cited and relevant studies analyzing the transcriptomic signatures of aging-related pathways in C. elegans were selected for this analysis. […] To generate a transcriptional profile score, the log fold change for each key gene in each pair of comparison (e.g. SND303 vs. negative control) is multiplied by a direction-specific factor and assigned a positive or negative value based on whether the change is in the same direction as reported in the literature. All the gene scores for a given pathway are summed up to produce one aggregated score per pathway for each pair of comparison.

[1] = test system: N2 wild type strain of worms; experiment: C. elegans life span (survival) assay, manual scoring (SND301); format: in vivo
Protocol: The survival assay was conducted in the presence of 50 μM SND301 with measurements of live, dead, and censored worms at time points every 2-3 days from the start of adulthood.
Thioflavin T was used in the assay as a positive control [Gamir-Morralla A et al, 2019, “Effects of Thioflavin T and GSK-3 Inhibition on Lifespan and Motility in a Caenorhabditis elegans Model of Tauopathy”, J Alzheimers Dis Rep., 3(1): 47-57]. Vehicle 25% and 1% DMSO were used as controls and represent the vehicles in which compounds and bacteria or bacteria alone respectively were resuspended. The final DMSO concentration in the agar plates was 0.5% and 0.02% respectively.
5 mM DMSO stock solutions for each compound were prepared in high-grade DMSO. Stocks were protected from light and stored in glass vials at 21° C. in a temperature-controlled room (to avoid freeze/thaw of DMSO). A fresh stock was prepared at the start of each experiment and stored for <1 week.
The lifespan assay was designed and performed according to published and validated methods with modifications for chemical treatment [Amrit F R G et al, 2014, “The C. elegans lifespan assay toolkit”, METHODS 68, 465-475; Leukanic, et. Al, “Manual Lifespan Assay Standard Operating Procedure”, Caenorhabditis Intervention Testing Program, https://figshare.com/articles/7_CITP_SOP_Manual_Lifespan_Assay/9738197/1]. Plates were seeded with compound dissolved in 25% DMSO and bacteria. The DMSO diffused through the agar to reach a final concentration of 0.5%. Synchronized day 1 adult worms were transferred to seeded plates containing compound and allowed to lay eggs for 2 hours (Day 0, “hatchoff”). The young adults were then removed, and the eggs were incubated at 20° C. until they had reached the young adult stage (day 3). 200 young adult worms per treatment were transferred to 8 fresh seeded 35 mm dishes with compound and 50 μM 5-Fluorodeoxyuridine to suppress progeny. […] Worms that were missing, stuck to the dish, burrowed, injured, or exploded were scored as censored and removed from the plate. To maintain chemical exposure at the experimental concentrations, worms were transferred every other scoring day to new seeded plates with compound.

[2] = Day 10, against negative control
[3] = end of the study, SND301 and Urolithin A 50 μM

Structure (SMILES): CC(C)NC(=O)Oc1ccc2c(c1)oc(=O)c1cc(OC(=O)NC(C)C)ccc12 [SND303]
- cel00980 Metabolism of xenobiotics by cytochrome P450: differentially-expressed genes (KEGG pathways; Day 3): gst-4; Glutathione S-transferase 4; also recorded: sodh-1; Alcohol dehydrogenase 1; also recorded: gst-5; Probable glutathione S-transferase 5
- cel04212 Longevity regulating pathway: differentially-expressed genes (KEGG pathways; Day 3): gst-4; Glutathione S-transferase 4; also recorded: gst-5; Probable glutathione S-transferase 5; also recorded: ctl-2; Peroxisomal catalase 1
- cel00190 Oxidative phosphorylation: differentially-expressed genes (KEGG pathways; Day 10): 15 genes
- cel03040 Spliceosome: differentially-expressed genes (KEGG pathways; Day 10): 10 genes
- cel03050 Proteasome: differentially-expressed genes (KEGG pathways; Day 10): 11 genes
- cel04010 MARK signaling pathway: differentially-expressed genes (KEGG pathways; Day 10): mtk-1; Protein kinase domain-containing protein; also recorded: fln-2; FiLamiN (actin binding protein) homolog; also recorded: nsy-1; Mitogen-activated protein; also recorded: mnk-1; MAP kinase-interacting; also recorded: pxf-1; Rap guanine nucleotide exchange factor; also recorded: ced-2; Cell death abnormality protein 2; also recorded: daf-2; Insulin-like receptor subunit beta
- cel04120 Ubiquitin mediated proteolysis: differentially-expressed genes (KEGG pathways; Day 10): 6 genes
- cel04140 Autophagy: differentially-expressed genes (KEGG pathways; Day 10): let-363; Target of rapamycin homolog; also recorded: daf-15; Raptor_N domain-containing protein; also recorded: pek-1; Eukaryotic translation initiation; also recorded: atg-2; Autophagy-related protein 2; also recorded: cpl-1; Cathepsin L-like; also recorded: epg-7; ATG11 domain-containing protein; also recorded: ragc-1; RAs-related GTP binding; also recorded: unc-51; Serine/threonine-protein kinase unc-51
- cel04141 Protein processing in endoplasmic reticulum: differentially-expressed genes (KEGG pathways; Day 10): pdi-2; Protein disulfide-isomerase 2; also recorded: cup-2; Derlin-1; also recorded: skr-2; SKp1 Related (ubiquitin ligase; also recorded: pek-1; Eukaryotic translation initiation; also recorded: uggt-1; UDP-Glucose Glycoprotein; also recorded: nsy-1; Mitogen-activated protein kinase; also recorded: rbx-1; RING-box protein 1; also recorded: Protein transport protein Sec61 subunit gamma
- cel04150 mTOR signaling pathway: differentially-expressed genes (KEGG pathways; Day 10): let-363; Target of rapamycin homolog; also recorded: daf-15; Raptor_N domain-containing protein; also recorded: rict-1; RICTOR_V domain-containing protein; also recorded: T08A11.1; DEP domain-containing protein; also recorded: ragc-1; RAs-related GTP binding; also recorded: Y32H12A.8; WD_Repeats domain-containing; also recorded: daf-2; Insulin-like receptor subunit beta; also recorded: unc-51; Serine/threonine-protein kinase unc-51
- cel04212 Longevity regulating pathway-worm: differentially-expressed genes (KEGG pathways; Day 10): let-363; Target of rapamycin homolog; also recorded: sod-2; Superoxide dismutase [Mn] 1, mitochondrial; also recorded: gst-7; Probable glutathione S-transferase 7; also recorded: fat-6; Delta(9)-fatty-acid desaturase fat-6; also recorded: daf-2; insulin-like receptor subunit beta; also recorded: unc-51; Serine/threonine-protein kinase unc-51
- cel04361 Axon regeneration: differentially-expressed genes (KEGG pathways; Day 10): 7 genes
- Transcriptional profile score, overall (aging-related pathways; Day 3, against negative control): little deviation from the control
- Transcriptional profile score, Oxidative stress response (aging-related pathways; [2]): strong negative score
- Transcriptional profile score, overall (aging-related pathways; [2]): greatest overall profile contrast with control

Structure (SMILES): O=c1oc2cc(O)ccc2c2ccc(O)cc12 [Urolithin A, reference compound]
- Death events ([1]; Table 1A, at a certain point during the study, N2, SND301 and Urolithin A 50 μM): 47
- % Complete ([1]; Table 1A, deaths attributed to aging from total worm population, at a certain point during the study, N2): 25.7%
- Death events ([1]; Table 1B, end of the study, SND301 and Urolithin A 50 μM): 178
- Maximum life span [1, 3]: 35 days
- Median lifespan [1, 3]: 21 days

Reference: patent US12264142B2, “Heterocyclic compounds” (FLORATEK PHARMA SA, priority 2019, dated 2025)
